From publication PMC7026418, “The kinase polypharmacology landscape of clinical PARP inhibitors” (Scientific Reports, 2020)
Like-named read-outs stand apart in the source and are kept apart here.

Columns and labels:
Assay in all cases: biochemical
[1] = biological target: T1, AURKC (Homo sapiens, UniProt Q9UQB9); parameters: DiscoveRx KINOMEscan active site-directed competition binding; percent of control kinase bound to immobilised ligand
T1 sequence (Q9UQB9 1-309): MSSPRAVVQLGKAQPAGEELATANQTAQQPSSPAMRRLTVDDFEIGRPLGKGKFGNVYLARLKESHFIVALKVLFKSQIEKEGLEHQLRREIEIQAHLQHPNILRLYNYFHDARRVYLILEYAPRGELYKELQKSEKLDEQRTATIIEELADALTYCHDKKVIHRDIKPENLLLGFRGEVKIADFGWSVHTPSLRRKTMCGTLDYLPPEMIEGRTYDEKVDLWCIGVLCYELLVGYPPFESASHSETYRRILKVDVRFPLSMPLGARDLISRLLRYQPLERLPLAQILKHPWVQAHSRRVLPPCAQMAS

[2] = biological target: T2, EPHA1 (Homo sapiens, UniProt P21709); parameters: DiscoveRx KINOMEscan active site-directed competition binding; percent of control kinase bound to immobilised ligand
T2 sequence (P21709 1-976): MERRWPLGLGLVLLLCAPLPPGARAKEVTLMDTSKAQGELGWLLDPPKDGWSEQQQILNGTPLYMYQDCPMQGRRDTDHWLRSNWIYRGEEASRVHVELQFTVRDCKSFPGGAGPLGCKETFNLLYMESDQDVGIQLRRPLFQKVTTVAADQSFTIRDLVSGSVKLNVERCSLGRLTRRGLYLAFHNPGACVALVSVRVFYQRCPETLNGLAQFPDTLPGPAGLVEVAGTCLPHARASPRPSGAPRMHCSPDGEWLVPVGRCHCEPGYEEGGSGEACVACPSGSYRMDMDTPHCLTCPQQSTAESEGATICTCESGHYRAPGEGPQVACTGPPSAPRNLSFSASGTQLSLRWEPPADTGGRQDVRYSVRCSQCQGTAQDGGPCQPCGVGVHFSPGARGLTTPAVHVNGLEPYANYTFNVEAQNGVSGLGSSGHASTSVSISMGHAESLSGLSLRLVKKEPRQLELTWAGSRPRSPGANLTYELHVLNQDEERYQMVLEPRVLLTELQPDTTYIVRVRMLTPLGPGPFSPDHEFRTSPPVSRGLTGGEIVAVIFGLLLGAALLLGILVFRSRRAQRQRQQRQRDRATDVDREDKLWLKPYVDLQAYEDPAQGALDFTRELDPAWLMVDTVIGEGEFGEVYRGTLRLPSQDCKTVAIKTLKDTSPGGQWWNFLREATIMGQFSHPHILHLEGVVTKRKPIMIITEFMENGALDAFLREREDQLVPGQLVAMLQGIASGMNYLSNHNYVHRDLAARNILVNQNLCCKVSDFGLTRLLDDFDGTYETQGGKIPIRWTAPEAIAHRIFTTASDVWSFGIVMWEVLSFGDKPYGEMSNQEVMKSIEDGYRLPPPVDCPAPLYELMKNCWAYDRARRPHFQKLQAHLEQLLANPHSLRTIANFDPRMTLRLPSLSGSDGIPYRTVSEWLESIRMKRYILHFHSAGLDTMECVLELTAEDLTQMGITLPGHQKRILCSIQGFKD

[3] = biological target: FGFR3(G697C) (Homo sapiens, UniProt P22607, G697C); parameters: DiscoveRx KINOMEscan active site-directed competition binding; percent of control kinase bound to immobilised ligand
[4] = biological target: T3, MEK2 (Homo sapiens, UniProt P36507); parameters: DiscoveRx KINOMEscan active site-directed competition binding; percent of control kinase bound to immobilised ligand
T3 construct: gene MAP2K2

[5] = biological target: T4, MRCKB (Homo sapiens, UniProt Q9Y5S2); parameters: DiscoveRx KINOMEscan active site-directed competition binding; percent of control kinase bound to immobilised ligand
T4 construct: gene CDC42BPB

[6] = biological target: CDK4-cyclinD3 (Homo sapiens, UniProt P11802); parameters: cyclinD3; DiscoveRx KINOMEscan active site-directed competition binding; percent of control kinase bound to immobilised ligand
[7] = read-out: Niraparib (MK-4827) / %Ctrl @ 10000nM
[8] = read-out: Olaparib / %Ctrl @ 10000nM
[9] = read-out: Rucaparib / %Ctrl @ 10000nM, binding competition, % of control
[10] = read-out: Talazoparib (BMN 673) / %Ctrl @ 10000nM

CDK4-cyclinD3, sequence (P11802 whole entry): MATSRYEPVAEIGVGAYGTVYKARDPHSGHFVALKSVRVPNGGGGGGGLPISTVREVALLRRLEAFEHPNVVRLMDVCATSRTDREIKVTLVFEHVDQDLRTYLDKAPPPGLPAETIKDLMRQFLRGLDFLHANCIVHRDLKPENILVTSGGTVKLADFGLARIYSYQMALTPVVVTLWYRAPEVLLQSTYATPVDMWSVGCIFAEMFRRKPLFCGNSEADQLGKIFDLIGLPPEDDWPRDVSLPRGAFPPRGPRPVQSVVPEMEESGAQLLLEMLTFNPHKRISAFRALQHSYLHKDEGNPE
CDK4-cyclinD3, sequence (P30281 whole entry partner): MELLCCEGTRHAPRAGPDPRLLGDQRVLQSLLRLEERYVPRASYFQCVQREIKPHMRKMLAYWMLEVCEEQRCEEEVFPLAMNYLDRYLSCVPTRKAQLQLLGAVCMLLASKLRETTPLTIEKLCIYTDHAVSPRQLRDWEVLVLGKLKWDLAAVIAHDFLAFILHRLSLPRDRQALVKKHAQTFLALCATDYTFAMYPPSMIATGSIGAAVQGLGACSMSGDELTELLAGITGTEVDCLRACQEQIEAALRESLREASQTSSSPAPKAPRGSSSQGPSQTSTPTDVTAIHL
T3 sequence (P36507 whole entry): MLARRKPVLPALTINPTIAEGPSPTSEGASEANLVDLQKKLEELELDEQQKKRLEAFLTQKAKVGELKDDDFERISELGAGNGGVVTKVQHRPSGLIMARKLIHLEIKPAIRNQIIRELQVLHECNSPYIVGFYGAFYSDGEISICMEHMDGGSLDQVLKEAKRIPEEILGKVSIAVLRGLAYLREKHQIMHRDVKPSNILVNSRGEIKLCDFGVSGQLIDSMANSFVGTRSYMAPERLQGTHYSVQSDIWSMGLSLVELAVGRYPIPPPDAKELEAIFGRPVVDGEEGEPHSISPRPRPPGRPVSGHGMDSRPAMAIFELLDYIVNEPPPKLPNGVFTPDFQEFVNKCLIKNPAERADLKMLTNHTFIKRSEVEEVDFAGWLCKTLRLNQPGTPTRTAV
T4 sequence (Q9Y5S2 whole entry): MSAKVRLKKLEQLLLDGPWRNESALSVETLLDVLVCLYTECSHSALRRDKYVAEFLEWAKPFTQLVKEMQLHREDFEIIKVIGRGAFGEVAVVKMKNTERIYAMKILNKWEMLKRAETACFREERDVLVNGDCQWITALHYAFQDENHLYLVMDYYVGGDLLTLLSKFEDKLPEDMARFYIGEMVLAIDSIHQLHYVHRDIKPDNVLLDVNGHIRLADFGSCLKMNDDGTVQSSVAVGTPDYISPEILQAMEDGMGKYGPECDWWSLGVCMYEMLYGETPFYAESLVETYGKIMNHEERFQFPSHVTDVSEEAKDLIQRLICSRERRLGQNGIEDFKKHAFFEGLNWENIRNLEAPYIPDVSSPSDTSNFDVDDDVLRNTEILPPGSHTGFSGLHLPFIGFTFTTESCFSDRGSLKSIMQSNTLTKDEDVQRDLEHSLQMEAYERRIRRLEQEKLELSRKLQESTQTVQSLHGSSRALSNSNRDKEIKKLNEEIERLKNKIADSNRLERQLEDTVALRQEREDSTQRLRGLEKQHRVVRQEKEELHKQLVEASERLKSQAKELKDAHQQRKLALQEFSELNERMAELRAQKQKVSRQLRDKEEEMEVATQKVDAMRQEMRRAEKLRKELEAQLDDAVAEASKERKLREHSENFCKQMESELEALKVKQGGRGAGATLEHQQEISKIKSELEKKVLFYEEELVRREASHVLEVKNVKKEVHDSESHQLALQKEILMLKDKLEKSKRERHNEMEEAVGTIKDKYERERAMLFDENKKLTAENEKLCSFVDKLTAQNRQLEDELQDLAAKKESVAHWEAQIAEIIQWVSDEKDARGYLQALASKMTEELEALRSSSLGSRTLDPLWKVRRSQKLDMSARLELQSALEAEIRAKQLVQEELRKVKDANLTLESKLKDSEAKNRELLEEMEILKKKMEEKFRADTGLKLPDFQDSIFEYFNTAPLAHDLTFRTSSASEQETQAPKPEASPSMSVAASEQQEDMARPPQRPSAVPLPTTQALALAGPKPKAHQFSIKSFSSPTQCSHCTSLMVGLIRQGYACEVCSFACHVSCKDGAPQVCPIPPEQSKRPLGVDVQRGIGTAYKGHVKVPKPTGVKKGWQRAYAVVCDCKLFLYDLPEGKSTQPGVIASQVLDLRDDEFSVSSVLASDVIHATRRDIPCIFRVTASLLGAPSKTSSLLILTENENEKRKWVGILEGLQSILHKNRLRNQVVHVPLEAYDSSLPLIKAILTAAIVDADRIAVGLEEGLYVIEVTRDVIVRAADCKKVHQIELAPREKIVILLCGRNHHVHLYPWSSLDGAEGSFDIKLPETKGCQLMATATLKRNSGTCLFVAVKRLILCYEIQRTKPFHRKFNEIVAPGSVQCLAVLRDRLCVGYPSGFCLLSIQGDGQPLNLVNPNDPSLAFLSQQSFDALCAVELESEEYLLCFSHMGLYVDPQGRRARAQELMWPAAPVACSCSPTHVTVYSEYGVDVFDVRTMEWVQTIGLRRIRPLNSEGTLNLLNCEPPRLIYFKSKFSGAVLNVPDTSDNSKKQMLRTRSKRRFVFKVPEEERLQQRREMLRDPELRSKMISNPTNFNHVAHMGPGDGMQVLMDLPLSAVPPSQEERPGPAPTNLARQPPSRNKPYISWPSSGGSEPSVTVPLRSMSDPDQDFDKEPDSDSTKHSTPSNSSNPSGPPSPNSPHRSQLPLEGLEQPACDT
FGFR3(G697C), sequence (P22607 whole entry G697C): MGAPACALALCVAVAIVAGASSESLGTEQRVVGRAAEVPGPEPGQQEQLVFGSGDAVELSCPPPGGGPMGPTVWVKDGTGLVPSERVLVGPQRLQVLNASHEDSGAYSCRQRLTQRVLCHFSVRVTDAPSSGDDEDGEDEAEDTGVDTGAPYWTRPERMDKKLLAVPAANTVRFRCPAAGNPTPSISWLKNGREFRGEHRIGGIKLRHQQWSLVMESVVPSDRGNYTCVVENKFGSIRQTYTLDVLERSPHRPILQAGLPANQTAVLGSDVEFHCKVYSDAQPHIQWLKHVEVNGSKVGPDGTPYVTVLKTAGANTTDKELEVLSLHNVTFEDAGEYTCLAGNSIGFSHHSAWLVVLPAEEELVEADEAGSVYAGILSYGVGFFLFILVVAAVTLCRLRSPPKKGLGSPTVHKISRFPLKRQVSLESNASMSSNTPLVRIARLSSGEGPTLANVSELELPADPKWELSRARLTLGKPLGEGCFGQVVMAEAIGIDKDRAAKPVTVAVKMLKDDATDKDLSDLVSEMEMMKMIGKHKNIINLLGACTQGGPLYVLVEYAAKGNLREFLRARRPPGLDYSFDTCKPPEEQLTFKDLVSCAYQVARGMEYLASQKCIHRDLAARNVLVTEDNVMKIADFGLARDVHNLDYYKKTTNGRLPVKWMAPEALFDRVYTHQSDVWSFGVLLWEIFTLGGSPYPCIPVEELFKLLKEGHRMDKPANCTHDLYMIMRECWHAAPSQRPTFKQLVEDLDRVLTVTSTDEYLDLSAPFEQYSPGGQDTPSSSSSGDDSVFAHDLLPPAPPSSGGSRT

## NC(=O)c1cccc2cn(-c3ccc([C@@H]4CCCNC4)cc3)nc12 [Niraparib]
[1]; [7]
  percent of control binding at 10 µM: 56%
[2]; [7]
  percent of control binding at 10 µM: 86%
[3]; [7]
  percent of control binding at 10 µM: 90%
[4]; [7]
  percent of control binding at 10 µM: 74%
[5]; [7]
  percent of control binding at 10 µM: 98%
[6]; [7]
  percent of control binding at 10 µM: 38%

## O=C(c1cc(Cc2n[nH]c(=O)c3ccccc23)ccc1F)N1CCN(C(=O)C2CC2)CC1 [Olaparib]
[1]; [8]
  percent of control binding at 10 µM: 97%
[2]; [8]
  percent of control binding at 10 µM: 92%
[3]; [8]
  percent of control binding at 10 µM: 98%
[4]; [8]
  percent of control binding at 10 µM: 87%
[5]; [8]
  percent of control binding at 10 µM: 100%
[6]; [8]
  percent of control binding at 10 µM: 95%

## CNCc1ccc(-c2[nH]c3cc(F)cc4c3c2CCNC4=O)cc1 [Rucaparib]
[1]; [9]
  percent of control binding at 10 µM: 78%
[2]; [9]
  percent of control binding at 10 µM: 99%
[3]; [9]
  percent of control binding at 10 µM: 100%
[4]; [9]
  percent of control binding at 10 µM: 79%
[5]; [9]
  percent of control binding at 10 µM: 100%
[6]; [9]
  percent of control binding at 10 µM: 12%

## Cn1ncnc1[C@H]1c2n[nH]c(=O)c3cc(F)cc(c23)N[C@@H]1c1ccc(F)cc1 [Talazoparib]
[1]; [10]
  percent of control binding at 10 µM: 100%
[2]; [10]
  percent of control binding at 10 µM: 98%
[3]; [10]
  percent of control binding at 10 µM: 92%
[4]; [10]
  percent of control binding at 10 µM: 57%
[5]; [10]
  percent of control binding at 10 µM: 100%
[6]; [10]
  percent of control binding at 10 µM: 99%
